Common to all, as to experiment: Transient transfection (transactivation) assay in CV-1 cells, GAL4-PPAR chimera, luciferase reporter
Assay type in all cases: cell-based
A general note: A reporter such as luciferase makes a cellular process visible.

Assay [1] concerns the target T1, PPAR gamma (Homo sapiens, UniProt P37231).
T1 construct: expressed in transfected cells; host or cells: CV-1 cells
T1 sequence (P37231 238-503 limits assumed): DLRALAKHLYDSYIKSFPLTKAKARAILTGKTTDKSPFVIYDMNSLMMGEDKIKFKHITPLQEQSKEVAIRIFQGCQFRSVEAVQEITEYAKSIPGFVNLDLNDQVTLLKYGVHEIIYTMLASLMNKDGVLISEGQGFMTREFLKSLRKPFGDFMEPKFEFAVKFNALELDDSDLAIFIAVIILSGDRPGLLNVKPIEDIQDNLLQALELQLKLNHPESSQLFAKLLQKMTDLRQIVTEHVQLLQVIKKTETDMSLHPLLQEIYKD

The target of assay [2] is T2, PPAR alpha (Homo sapiens, UniProt Q07869).
T2 construct: expressed in transfected cells; host or cells: CV-1 cells
T2 sequence (Q07869 239-466 limits assumed): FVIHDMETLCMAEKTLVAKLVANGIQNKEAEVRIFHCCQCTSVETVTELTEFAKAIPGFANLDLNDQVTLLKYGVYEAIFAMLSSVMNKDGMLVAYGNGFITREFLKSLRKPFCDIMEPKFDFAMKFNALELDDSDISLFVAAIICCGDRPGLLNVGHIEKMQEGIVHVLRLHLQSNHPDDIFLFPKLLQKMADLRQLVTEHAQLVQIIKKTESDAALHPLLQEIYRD
An excerpt: Compounds may be screened for functional potency in transient transfection assays in CV-1 cells or other cell types for their ability to activate the PPAR subtypes (transactivation assay). A previously established chimeric receptor system was utilized to allow comparison of the relative transcriptional activity of the receptor subtypes on the same synthetic response element and to prevent endogenous receptor activation from complicating the interpretation of results. See, for example; Lehmann, J. M.; Moore, L. B.; Smith-Oliver, T. A; Wilkinson, W. O.; Willson, T. M.; Kliewer, S. A., An antidiabetic thiazolidinedione is a high affinity ligand for peroxisome proliferatur-activated receptor γ (PPARγ), J. Biol. Chem., 1995, 270, 12953-6. The ligand binding domains for murine and human PPAR-alpha, PPAR-gamma, and PPAR-delta are each fused to the yeast transcription factor GAL4 DNA binding domain. CV-1 cells were transiently transfected with expression vectors for the respective PPAR chimera along with a reporter construct containing four or five copies of the GAL4 DNA binding site driving expression of luciferase. After 8-16 h, the cells are replated into multi-well assay plates and the media is exchanged to phenol-red free DME medium supplemented with 5% delipidated calf serum. 4 hours after replating, cells were treated with either compounds or 1% DMSO for 20-24 hours. Luciferase activity was then assayed with Britelite (Perkin Elmer) following the manufacturer's protocol and measured with either the Perkin Elmer Viewlux or Molecular Devices Acquest Xsee, for example, Kliewer, S. A., et. al. Cell 1995, 83, 813-819). Rosiglitazone is used as a positive control in the hPPAR-γ assay. Wy-14643 and GW7647 is used as a positive control in the hPPAR-α assay. GW501516 is used as the positive control in the hPPAR-δ assay.
Compounds of Examples 1-233 were assayed to measure their biological activity with respect to their EC50 values and efficacy for modulating PPAR-alpha, PPAR-gamma, and PPAR-delta as set forth in Table 3.

In assay [3] the target is T3, PPAR delta (Homo sapiens, UniProt Q03181).
T3 construct: expressed in transfected cells; host or cells: CV-1 cells
T3 sequence (Q03181 211-439 limits assumed): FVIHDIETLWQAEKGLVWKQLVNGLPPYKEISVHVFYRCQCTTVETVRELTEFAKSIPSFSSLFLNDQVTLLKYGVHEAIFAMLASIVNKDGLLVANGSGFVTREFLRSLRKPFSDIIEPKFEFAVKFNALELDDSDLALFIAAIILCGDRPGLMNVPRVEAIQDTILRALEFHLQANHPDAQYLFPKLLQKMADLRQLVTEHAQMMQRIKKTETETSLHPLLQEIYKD

Each structure is given as a SMILES string. pEC50: −log10 of the molar value.

In the case of `Cc1ccc(S(=O)(=O)N2C[C@H](C)N(c3ccc(C(F)(F)F)cn3)C[C@H]2C)cc1CC(=O)O` (mixture of isomers) [Example 21, SR and RS-{5-[2,5-Dimethyl-4-(5-trifluoromethyl-pyridin-2-yl)-piperazine-1-sulfonyl]-2-methyl-phenyl}-acetic acid], the pEC50 – broadly, −log10 of the EC50, conventionally taken in molar units – in assay [1] is 4.00 to 5.30; in assay [2], less than 4.00; in assay [3] it was more than 5.30.
Regarding `Cc1ccc(S(=O)(=O)N2CCN(c3ccc(C(F)(F)F)cn3)[C@@H](C)[C@H]2C)cc1CC(=O)O` (mixture of isomers) [Example 104, RS and SR-{5-[2,3-Dimethyl-4-(5-trifluoromethyl-pyridin-2-yl)-piperazine-1-sulfonyl]-2-methyl-phenyl}-acetic acid], the pEC50 is more than 5.30 in assay [1], 4.00 to 5.30 in assay [2] and more than 5.30 in assay [3].
With `Cc1cc(CC(=O)O)cc(S(=O)(=O)N2CCN(c3ccc(C(F)(F)F)cn3)[C@@H](C)[C@H]2C)c1` (mixture of isomers) [Example 106, RS and SR-{3-[2,3-Dimethyl-4-(5-trifluoromethyl-pyridin-2-yl)-piperazine-1-sulfonyl]-5-methyl-phenyl}-acetic acid], the negative-log EC50 (pEC50) in assay [1] is less than 4.00; in assay [2], less than 4.00; in assay [3] it was more than 5.30.
Regarding `C[C@@H]1[C@H](C)N(c2ccc(C(F)(F)F)cn2)CCN1S(=O)(=O)c1cccc(CC(=O)O)c1` (racemic) [Example 105, RS and SR-{3-[2,3-Dimethyl-4-(S-trifluoromethyl-pyridin-2-yl)-piperazine-1-sulfonyl]-phenyl}-acetic acid], the pEC50 in assay [1] is more than 5.30; in assay [2] it was less than 4.00; in assay [3], more than 5.30.
For `Cc1ccc(S(=O)(=O)N2CCN(c3ccc(C(F)(F)F)cn3)[C@H](C)C2)cc1CC(=O)O` (single isomer, unassigned) [Example 69], the pEC50 in assay [1] was more than 5.30; in assay [2] it was 4.00 to 5.30; in assay [3], more than 5.30.
With `Cc1ccc(CC(=O)O)cc1S(=O)(=O)N1CCC(c2ccc(Cl)cc2)CC1` [Example 1], the results for the pEC50 in assay [1], in assay [2] and in assay [3] were less than 4.00, less than 4.00 and more than 5.30, respectively.
On to `Cc1ccc(S(=O)(=O)N2CCC(c3ccc(Cl)cc3)CC2)cc1CC(=O)O` [Example 2, {5-[4-(4-Chlorophenyl)-piperidine-1-sulfonyl]-2-methyl-phenyl}-acetic acid], for which the negative-log EC50 (pEC50) in assay [1] is less than 4.00; in assay [2] it was less than 4.00; in assay [3] it was 4.00 to 5.30.
Turning to `O=C(O)Cc1cccc(S(=O)(=O)N2CCN(c3ccc(C(F)(F)F)cc3)CC2)c1` [Example 3, {3-[4-(4-Trifluoromethyl-phenyl)-piperazine-1-sulfonyl]-phenyl}-acetic acid], the pEC50 is 4.00 to 5.30 in assay [1], 4.00 to 5.30 in assay [2] and more than 5.30 in assay [3].
For `O=C(O)Cc1cccc(S(=O)(=O)N2CCN(c3ccc(C(F)(F)F)cn3)CC2)c1` [Example 4, {3-[4-(5-Trifluoromethyl-pyridin-2-yl)-piperazine-1-sulfonyl]-phenyl}-acetic acid], the pEC50 in assay [1] was 4.00 to 5.30; in assay [2] it was 4.00 to 5.30; in assay [3], more than 5.30.
As for `Cc1ccc(S(=O)(=O)N2CCCN(c3ccc(C(F)(F)F)cc3)CC2)cc1CC(=O)O` [Example 5, {2-Methyl-5-[4-(4-trifluoromethyl-phenyl)-[1,4]diazepane-1-sulfonyl]-phenyl}-acetic acid], the values for the negative-log EC50 (pEC50) in assay [1], in assay [2] and in assay [3] were 4.00 to 5.30, less than 4.00 and more than 5.30, respectively.
With `Cc1ccc(S(=O)(=O)N2CCN(c3ccc(C(F)(F)F)cn3)CC2C(C)C)cc1CC(=O)O` (stereo not drawn) [Example 6, {5-[2-Isopropyl-4-(5-trifluoromethyl-pyridin-2-yl)-piperazine-1-sulfonyl]-2-methyl-phenyl}-acetic acid], the figures for the pEC50 in assay [1], in assay [2] and in assay [3] were 4.00 to 5.30, 4.00 to 5.30 and more than 5.30, respectively.
Take `CCC1CN(c2ccc(C(F)(F)F)cn2)CCN1S(=O)(=O)c1ccc(C)c(CC(=O)O)c1` (stereo not drawn) [Example 7, {5-[2-Ethyl-4-(5-trifluoromethyl-pyridin-2-yl)-piperazine-1-sulfonyl]-2-methyl-phenyl)-acetic acid]: the pEC50 in assay [1] was 4.00 to 5.30; in assay [2], 4.00 to 5.30; in assay [3], more than 5.30.
Regarding `Cc1ccc(S(=O)(=O)N2CCCN(c3ccc(C(F)(F)F)cn3)CC2)cc1CC(=O)O` [Example 8, {2-Methyl-5-[4-(5-trifluoromethyl-pyridin-2-yl)-[1,4]diazepane-1-sulfonyl]-phenyl}-acetic acid], the pEC50 in assay [1] was more than 5.30; in assay [2] it was 4.00 to 5.30; in assay [3], more than 5.30.
Turning to `Cc1ccc(S(=O)(=O)N2CCCN(c3ncc(C(F)(F)F)cc3Cl)CC2)cc1CC(=O)O` [Example 9], the pEC50 in assay [1], in assay [2] and in assay [3] was more than 5.30 each time.
For the compound `Cc1ccc(S(=O)(=O)N2C[C@@H]3C[C@H]2CN3c2cccc(F)c2)cc1CC(=O)O` [Example 10, S,S-{5-[4-(3-Fluorophenyl)-2,5-diaza-bicyclo[2.2.1]heptane-1-sulfonyl]-2-methyl-phenyl}acetic acid], the pEC50 in assay [1] is less than 4.00; in assay [2] it was less than 4.00; in assay [3] it was 4.00 to 5.30.
As to `Cc1ccc(S(=O)(=O)N2C[C@@H]3C[C@H]2CN3c2ccc(F)cc2)cc1CC(=O)O` [Example 11], the pEC50 is less than 4.00 in assay [1], less than 4.00 in assay [2] and 4.00 to 5.30 in assay [3].
Regarding `Cc1ccc(S(=O)(=O)N2CCCN(c3ncccc3C(F)(F)F)CC2)cc1CC(=O)O` [Example 12, {2-Methyl-5-[4-(3-trifluoromethyl-pyridin-2-yl)-[1,4]diazepane-1-sulfonyl]-phenyl}-acetic acid], the negative-log EC50 (pEC50) in assay [1] was 4.00 to 5.30; in assay [2], less than 4.00; in assay [3], 4.00 to 5.30.
Consider `Cc1ccc(S(=O)(=O)N2CCCN(c3ccncc3)CC2)cc1CC(=O)O` [Example 13], for which the pEC50 was less than 4.00 in assay [1], less than 4.00 in assay [2] and 4.00 to 5.30 in assay [3].
On to `Cc1ccc(S(=O)(=O)N2CCCC(c3ccc(C(F)(F)F)cc3)C2)cc1CC(=O)O` (stereo not drawn) [Example 15, {2-Methyl-5-[3-(4-trifluoromethyl-phenyl)-piperidine-1-sulfonyl]-phenyl}-acetic acid], for which the figures for the pEC50 in assay [1], in assay [2] and in assay [3] were 4.00 to 5.30, 4.00 to 5.30 and more than 5.30, respectively.
With `Cc1ccc(S(=O)(=O)N2CCCC(c3cccc(C(F)(F)F)c3)C2)cc1CC(=O)O` (stereo not drawn) [Example 16, {2-Methyl-5-[3-(3-trifluoromethyl-phenyl)-piperidine-1-sulfonyl]-phenyl}-acetic acid], the pEC50 in assay [1] was more than 5.30; in assay [2], less than 4.00; in assay [3], 4.00 to 5.30.
As to `Cc1ccc(S(=O)(=O)N2CCN(c3nc4ccccc4o3)CC2)cc1CC(=O)O` [Example 17, [5-(4-Benzoxazol-2-yl-piperazine-1-sulfonyl)-2-methyl-phenyl]-acetic acid], the pEC50 in assay [1] was 4.00 to 5.30; in assay [2], 4.00 to 5.30; in assay [3] it was more than 5.30.
As to `Cc1ccc(S(=O)(=O)N2CCN(c3nc4ccccc4s3)CC2)cc1CC(=O)O` [Example 18, [5-(4-Benzothiazol-2-yl-piperazine-1-sulfonyl)-2-methyl-phenyl]-acetic acid], the pEC50 in assay [1], in assay [2] and in assay [3] was more than 5.30 each time.
`Cc1ccc(S(=O)(=O)N2CCN(c3ccc(C(F)(F)F)cn3)CC2C)cc1CC(=O)O` (stereo not drawn) [Example 19]: the pEC50 was 4.00 to 5.30 in assay [1], 4.00 to 5.30 in assay [2] and more than 5.30 in assay [3].

(Values after US20050234046A1 (Kalypsys, Inc., priority 2004, published 2005).)
